Target: T1, Ba/F3 cell EGFR Exon20 ins NPH (Homo sapiens, UniProt P00533, INS773NPH)
T1 construct: expressed in transfected cells; host or cells: Ba/F3
Experiment: Ba/F3 cell proliferation suppression, EGFR Exon20 ins NPH
Type: cell-based
Conditions: GI50 class; Ba/F3 cell line with NPH inserted at Exon20 of EGFR; 72 hours
Outline: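 Seed 3000–5000 cells/well; after 24 h add compound (12 conc., 0.3 nM–50 um final); incubate 72 h; add CellTiter-Glo, 10 min room temperature; read luminescence; GI50 from % growth vs control, triplicate.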

SMILES	Ba/F3 (NPH) Activity
C=CC(=O)Nc1cc(Nc2cc(N3OCC[C@@H]3c3cccc(Cl)c3Cl)ncn2)c(OC)cc1N1C[C@H]2C[C@@H]1CO2 [compound 523, N-(2-((1R,4R)-2-oxa-5-azabicyclo[2.2.1]heptane-5-yl)-5-((6-((R)-3-(2,3-dichlorophenyl)isoxazolidine-2-yl)pyrimidine-4-yl)amino)-4-methoxyphenyl) acrylamide]	A (GI50 < 50 nM)
C=CC(=O)Nc1cc(Nc2cc(N3OCC[C@@H]3c3ccc(F)c(F)c3)ncn2)c(OC)cc1N1CCN(CC)CC1 [compound 460, N-(5-((6-((R)-3-(3,4-difluorophenyl)isoxazolidine-2-yl)pyrimidine-4-yl)amino)-2-(4-ethylpiperazine-1-yl)-4-methoxyphenyl) acrylamide]	A (GI50 < 50 nM)
C=CC(=O)Nc1cc(Nc2cc(N3OCC[C@@H]3c3ccc(F)c(Cl)c3F)ncn2)c(OC)cc1N(C)CCN(C)C [compound 603, N-(5-((6-((R)-3-(3-chloro-2,4-difluorophenyl)isoxazolidine-2-yl)pyrimidine-4-yl)amino)-2-((2-(dimethylamino)ethyl)(methyl)amino)-4-methoxyphenyl) acrylamide]	A (GI50 < 50 nM)
C=CC(=O)Nc1cc(Nc2cc(N3OCC[C@@H]3c3cc(F)ccc3F)ncn2)c(OC)cc1N1CCC(N2C[C@@H]3C[C@H]2CO3)CC1 [compound 826, N-(2-(4-((1S,4S)-2-oxa-5-azabicyclo [2.2.1]heptane-5-yl)piperidine-1-yl)-5-((6-((R)-3-(2,5-difluorophenyl)isoxazolidine-2-yl)pyrimidine-4-yl)amino)-4-methoxyphenyl) acrylamide]	A (GI50 < 50 nM)
C=CC(=O)Nc1cc(Nc2cc(N3OCC[C@@H]3c3ccc4ccccc4c3)ncn2)c(OC)cc1N1C[C@H](C)O[C@@H](C)C1 [compound 660, N-(2-((2S,6S)-2,6-dimethylmorpholino)-4-methoxy-5-((6-((R)-3-(naphthalene-2-yl)isoxazolidine-2-yl)pyrimidine-4-yl)amino)phenyl)acrylamide]	C (500 nM ≤ GI50 < 5000 nM)
C=CC(=O)Nc1cc(Nc2cc(N3OCC[C@@H]3c3cccc(C#N)c3)ncn2)c(OC)cc1N1CCC(N(C)C)CC1 [compound 394, N-(5-((6-((R)-3-(3-cyanophenyl)isoxazolidine-2-yl)pyrimidine-4-yl)amino)-2-(4-(dimethylamino)piperidine-1-yl)-4-methoxyphenyl) acrylamide]	A (GI50 < 50 nM)
C=CC(=O)Nc1cc(Nc2cc(N3OCC[C@@H]3c3ccc(Cl)c(Cl)c3)ncn2)c(OC)cc1N1CCN(C)CC1 [compound 670, N-(5-((6-((R)-3-(3,4-dichlorophenyl)isoxazolidine-2-yl)pyrimidine-4-yl)amino)-4-methoxy-2-(4-methylpiperazine-1-yl)phenyl)acrylamide]	A (GI50 < 50 nM)
C=CC(=O)Nc1cc(Nc2cc(N3OCC[C@@H]3c3cccc(C#N)c3)ncn2)c(OC)cc1N1C[C@@H]2CCN(C)[C@@H]2C1 [compound 332, N-(5-((6-((R)-3-(3-cyanophenyl)isoxazolidine-2-yl)pyrimidine-4-yl)amino)-4-methoxy-2-((3aS,6aS)-1-methylhexahydropyrrolo [3,4-b]pyrrole-5(1H)-yl)phenyl)acrylamide]	A (GI50 < 50 nM)
C=CC(=O)Nc1cc(Nc2cc(N3OCC[C@@H]3c3cc(F)cc(Cl)c3)ncn2)c(OC)cc1N1CCC(N2C[C@@H](C)O[C@@H](C)C2)CC1 [compound 594, N-(5-((6-((R)-3-(3-chloro-5-fluorophenyl)isoxazolidine-2-yl)pyrimidine-4-yl)amino)-2-(4-((2S,6R)-2,6-dimethylmorpholino)piperidine-1-yl)-4-methoxyphenyl) acrylamide]	A (GI50 < 50 nM)

Reference: patent publication US12157730B2, “Heteroaryl derivative, method for producing same, and pharmaceutical composition comprising same as effective component” (VORONOI INC., priority 2019, dated 2024)
